Holding throughout (assay type): biochemical
The target of one test is Gelatinase. Briefly: MMP inhibition by particle concentration fluorescence technique (gelatinase). Conditions: pH 7.5; 15 min enzyme preincubation; substrate 1-3 h at room temperature; read-out: MMP Inhibition Constants, Gelatinase Ki. Put shortly: (§1)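 Compound serially diluted two-fold in 50 mM Tris-HCl pH 7.5, 150 mM NaCl, preincubated 15 min with activated enzyme at room temperature. Fluorescein/biotin-tagged substrate then added for 1-3 hours in the dark. Intact substrate captured on avidin-coated particles; fluorescence signal indicates inhibition.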

The target in a further test is T1, Collagenase (Homo sapiens, UniProt P03956).
T1 sequence (P03956 100-469): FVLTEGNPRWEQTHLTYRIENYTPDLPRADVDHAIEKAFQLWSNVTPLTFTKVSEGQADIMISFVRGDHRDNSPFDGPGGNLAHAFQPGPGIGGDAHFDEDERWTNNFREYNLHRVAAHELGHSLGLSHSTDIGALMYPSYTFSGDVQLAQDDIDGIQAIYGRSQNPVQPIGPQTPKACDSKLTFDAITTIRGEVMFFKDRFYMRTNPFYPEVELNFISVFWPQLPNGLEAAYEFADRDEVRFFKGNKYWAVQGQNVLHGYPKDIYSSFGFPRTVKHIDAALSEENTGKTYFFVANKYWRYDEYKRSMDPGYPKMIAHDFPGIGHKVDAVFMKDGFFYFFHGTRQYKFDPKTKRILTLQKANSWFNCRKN
Briefly: MMP inhibition by particle concentration fluorescence technique (collagenase). The following applies: pH 7.5; 15 min enzyme preincubation; substrate 1-3 h at room temperature; read-out: MMP Inhibition Constants, Collagenase Ki. Put shortly: as §1

Another test deals with Stromelysin (Homo sapiens, UniProt P08254). Briefly: MMP inhibition by particle concentration fluorescence technique (stromelysin). The following applies: pH 7.5; 15 min enzyme preincubation; substrate 1-3 h at room temperature; read-out: MMP Inhibition Constants, Stromelysin Ki. Put shortly:
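Fluorescein- and biotin-labelled substrate captured on avidin particles after reaction; intact, uncleaved substrate retains fluorescence, so signal rises with inhibition. Activated enzyme incubated with two-fold serial compound dilutions 15 minutes at room temperature.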

Counter-ions that a name gives are not always drawn.

Sequence of Stromelysin (P08254 100-477): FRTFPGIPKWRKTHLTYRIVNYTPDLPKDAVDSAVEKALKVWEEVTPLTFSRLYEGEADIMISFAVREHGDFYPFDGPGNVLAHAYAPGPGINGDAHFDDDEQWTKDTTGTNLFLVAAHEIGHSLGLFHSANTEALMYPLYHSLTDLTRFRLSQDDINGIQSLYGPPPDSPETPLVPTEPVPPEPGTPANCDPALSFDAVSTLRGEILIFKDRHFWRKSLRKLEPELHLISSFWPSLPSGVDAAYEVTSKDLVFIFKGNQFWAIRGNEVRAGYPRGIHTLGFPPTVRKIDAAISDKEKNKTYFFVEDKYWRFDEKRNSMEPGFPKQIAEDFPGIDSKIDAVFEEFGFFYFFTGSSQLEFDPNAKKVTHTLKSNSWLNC

The term Ki denotes the dissociation constant of the complex between target and ligand, obtained from inhibition or displacement. For `CC(C)CC1(CC(=O)NO)CCN(Cc2ccccc2)C1=O` (stereo not drawn) [Example 23, N-Hydroxy-3-(2-methylpropyl)-2-oxo-1-(phenylmethyl)-3-pyrrolidineacetamide], the values for the Ki on Gelatinase, on Collagenase and at Stromelysin were 1560 nM, 453 nM and 4190 nM, respectively.

As to `CNC(=O)[C@H](Cc1ccccc1)N1CC[C@](CC(=O)NO)(CC(C)C)C1=O` [Example 30, [S-(R*,R*)]-N^3 -Hydroxy-N^1-methyl-3-(2-methylpropyl)-2-oxo-α^1-(phenylmethyl)-1,3-pyrrolidinediacetamide], the Ki amounted to 24 nM at Gelatinase, 16 nM at Collagenase and 1050 nM on Stromelysin.

As for `CC(C)C[C@@]1(CC(=O)NO)CCN([C@@H](Cc2ccccc2)C(=O)NCCc2ccccc2)C1=O` [Example 31, [S-(R*,R*)]-N^3 -Hydroxy-3-(2-methylpropyl)-2-oxo-N^1-(2-phenethyl)-α^1-(phenylmethyl)-1,3-pyrrolidinediacetamide], the Ki at Gelatinase worked out at 19.3 nM; on Collagenase, 96 nM; at Stromelysin, 517 nM.

Take `CNC(=O)[C@H](CC(C)C)N1CC[C@](CC(=O)NO)(CC(C)C)C1=O` [Example 32, [S-(R*,R*)]-N^3 -Hydroxy-N^1-methyl-α^1,3-bis(2-methylpropyl)-2-oxo-1,3-pyrrolidinediacetamide]: the Ki at Gelatinase was 50 nM; on Collagenase it was 36 nM; at Stromelysin, 730 nM.

Consider `CNC(=O)[C@H](Cc1ccccc1)N1CC[C@@](CCC(C)C)(CC(=O)NO)C1=O` [Example 34, [S-(R*,R*)]-N^3 -Hydroxy-N^1-methyl-3-(3-methylbutyl)-2-oxo-α^1-(phenylmethyl)-1,3-pyrrolidinediacetamide], for which the Ki stood at 31 nM at Gelatinase, 22 nM on Collagenase and 4140 nM on Stromelysin.

In the case of `CC(C)CC1(CC(=O)NO)CNN(CCc2ccccc2)C1=O` (stereo not drawn) [Example 38, N-Hydroxyl-4-(2-methylpropyl)-5-oxo-1-(2-phenylethyl)-4-pyrazolidineacetamide monohydrochloride], the Ki was determined as 14500 nM on Gelatinase, 13300 nM at Collagenase and 31200 nM on Stromelysin.

`CC(C)C[C@@]1(CC(=O)NO)CCN([C@@H](Cc2ccccc2)C(=O)Nc2ccccc2)C1=O` [Example 39, [S-(R*,R*)]-N^3 -Hydroxy-3-(2-methylpropyl)-2-oxo-N^1-phenyl-α^1-(phenylmethyl)-1,3-pyrrolidinediacetamide]: the results for the inhibition constant (Ki) at Gelatinase, at Collagenase and on Stromelysin were 75.9 nM, 5.81 nM and 101 nM, respectively.

For `CC(C)C[C@@]1(CC(=O)NO)CCN([C@@H](Cc2ccccc2)C(=O)NCc2ccccn2)C1=O` [Example 40, [S-(R*,R*)]-N^3 -Hydroxy-3-(2-methylpropyl)-2-oxo-α^1-(phenylmethyl)-N^1-(2-pyridinylmethyl)-1,3-pyrrolidinediacetamide], the Ki was 10.5 nM at Gelatinase, 37 nM on Collagenase and 1990 nM at Stromelysin.

For `CC(C)C[C@@]1(CC(=O)NO)CCN([C@@H](Cc2ccccc2)C(=O)Nc2ccncc2)C1=O` [Example 41, [S-(R*,R*)]-N^3 -Hydroxy-3-(2-methylpropyl)-2-oxo-α^1-(phenylmethyl)-N^1-(4-pyridinyl)-1,3-pyrrolidinediacetamide], the values for the Ki at Gelatinase, at Collagenase and on Stromelysin were 2.3 nM, 2.8 nM and 14 nM, respectively.

With `CC(C)C[C@@]1(CC(=O)NO)CCN([C@@H](Cc2ccccc2)C(=O)Nc2ccc(F)cc2)C1=O` [Example 42, [S-(R*,R*)]-N^1-(4-Fluorophenyl)-N^3-hydroxy-3-(2-methylpropyl)-2-oxo-α^1-(phenylmethyl)-1,3-pyrrolidinediacetamide], the values for the Ki on Gelatinase, on Collagenase and at Stromelysin were 5.4 nM, 2.44 nM and 25.5 nM, respectively.

Turning to `CC(C)C[C@@]1(CC(=O)NO)CCN([C@@H](Cc2ccccc2)C(=O)NC2CCN(Cc3ccccc3)CC2)C1=O` [Example 43, [S-(R*,R*)]-N^3 -Hydroxy-3-(2-methylpropyl)-2-oxo-α^1-(phenylmethyl)-N^1-[1-(phenylmethyl)-4-piperdinyl]-1,3-pyrrolidinediacetamide], the Ki was found to be 2.3 nM on Gelatinase, 2.36 nM at Collagenase and 1800 nM at Stromelysin.

For `CC(C)C[C@@]1(CC(=O)NO)CCN([C@@H](Cc2ccccc2)C(=O)NC2CCNCC2)C1=O` [Example 44, [S-(R*,R*)]-N^3 -Hydroxy-3-(2-methylpropyl)-2-oxo-α^1-(phenylmethyl)-N^1-(4-piperdinyl)-1,3-pyrrolidinediacetamide], the values for the Ki on Gelatinase, at Collagenase and on Stromelysin were 11 nM, 20.2 nM and 4000 nM, respectively.

In the case of `CC(C)C[C@@]1(CC(=O)NO)CCN([C@@H](Cc2ccccc2)C(=O)NCc2ccncc2)C1=O` [Example 45, [S-(R*,R*)]-N^3 -Hydroxy-3-(2-methylpropyl)-2-oxo-α^1-(phenylmethyl)-N^1-(4-pyridinylmethyl)-1,3-pyrrolidinediacetamide], the Ki on Gelatinase amounted to 17 nM; on Collagenase, 23.5 nM; on Stromelysin, 1010 nM.

On to `CC(C)C[C@@]1(CC(=O)NO)CCN([C@@H](Cc2ccccc2)C(=O)NCc2ccc(F)cc2)C1=O` [Example 46, [S-(R*,R*)]-N^1-(4-Fluorophenylmethyl)-N^3-hydroxy-3-(2-methylpropyl)-2-oxo-α^1-(phenylmethyl)-1,3-pyrrolidinediacetamide], for which the inhibition constant (Ki) at Gelatinase was 40 nM; on Collagenase, 35 nM; at Stromelysin it was 2100 nM.

For the compound `CNC(=O)[C@H](CCc1ccccc1)N1CC[C@](CC(=O)NO)(CC(C)C)C1=O` [Example 47, [S-(R*,R*)]-N^3 -Hydroxy-N^1-methyl-3-(2-methylpropyl)-2-oxo-α^1-(2-phenylethyl)-1,3-pyrrolidinediacetamide], the Ki was 85.3 nM on Gelatinase, 81.5 nM at Collagenase and 868 nM at Stromelysin.

As to `CC(C)C[C@@]1(CC(=O)NO)CCN([C@@H](CCc2ccccc2)C(=O)NCc2ccccc2)C1=O` [Example 48, [S-(R*,R*)]-N^3 -Hydroxy-3-(2-methylpropyl)-2-oxo-α^1-(2-phenylethyl)-N^1-(phenylmethyl)-1,3-pyrrolidinediacetamide], the Ki on Gelatinase came to 160 nM; at Collagenase, 72 nM; at Stromelysin it was 385 nM.

As to `CC(C)C[C@@H](C(=O)Nc1ccccn1)N1CC[C@](CC(=O)NO)(CC(C)C)C1=O` [Example 49, [S-(R*,R*)]-N^3 -Hydroxy-α^1,3-bis(2-methylpropyl)-2-oxo-N^1-2-pyridinyl-1,3-pyrrolidinediacetamide], the Ki at Gelatinase is 61 nM; at Collagenase, 85 nM; at Stromelysin, 138 nM.

For the compound `CNC(=O)[C@H](C1CCCCC1)N1CC[C@](CC(=O)NO)(CC(C)C)C1=O` [Example 50, [S-(R*,R*)]-α^1 -Cyclohexyl-N^3-hydroxy-N^1-methyl-3-(2-methylpropyl)-2-oxo-1,3-pyrrolidinediacetamide], the Ki at Gelatinase turned out to be 17 nM; at Collagenase, 6.06 nM; at Stromelysin, 283 nM.

Consider `CC(C)C[C@@]1(CC(=O)NO)CCN([C@H](C(=O)Nc2ccccn2)C2CCCCC2)C1=O` [Example 51, [S-(R*,R*)]-α^1 -Cyclohexyl-N^3-hydroxy-3-(2-methylpropyl)-2-oxo-N^1-2-pyridinyl-1,3-pyrrolidinediacetamide], for which the Ki at Gelatinase was 23 nM; on Collagenase, 42.2 nM; at Stromelysin, 84 nM.

For the origin of these results see patent US5712300A, “Hydroxamic acid derivatives useful for the treatment of diseases related to connective tissue degradation” (priority 1997, dated 1998).
